Measurements as given in the supplement of paper PMC10307832.

Key:
Experiment in all cases: relative viability (nuclei count vs DMSO), 5 days (fraction); higher = more cells survive
Imatinib + Crizotinib = compound: Cc1ccc(NC(=O)c2ccc(CN3CCN(C)CC3)cc2)cc1Nc1nccc(-c2cccnc2)n1 [Imatinib] + C[C@@H](Oc1cc(-c2cnn(C3CCNCC3)c2)cnc1N)c1c(Cl)ccc(F)c1Cl [Crizotinib] (partner 1 µM)
In short: (§1)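 Relative viability is defined as nuclei in treated wells over nuclei in vehicle wells. Duplicate plates were run and medians reported. Lung cancer cell lines in 1536-well plates were dosed by pin tool one day after seeding, with one drug or with a fixed anchor-drug dose plus five library-drug doses (not always all listed) in √10 steps, and nuclei were counted after 5 days.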

Imatinib + Foretinib = compound: Cc1ccc(NC(=O)c2ccc(CN3CCN(C)CC3)cc2)cc1Nc1nccc(-c2cccnc2)n1 [Imatinib] + COc1cc2c(Oc3ccc(NC(=O)C4(C(=O)Nc5ccc(F)cc5)CC4)cc3F)ccnc2cc1OCCCN1CCOCC1 [Foretinib] (partner 0.25 µM)
In short: as §1

Imatinib + Phenformin = compound: Cc1ccc(NC(=O)c2ccc(CN3CCN(C)CC3)cc2)cc1Nc1nccc(-c2cccnc2)n1 [Imatinib] + N=C(N)NC(=N)NCCc1ccccc1 [Phenformin] (partner 250 µM)
In short: as §1

Imatinib + Vorinostat = compound: Cc1ccc(NC(=O)c2ccc(CN3CCN(C)CC3)cc2)cc1Nc1nccc(-c2cccnc2)n1 [Imatinib] + O=C(CCCCCCC(=O)Nc1ccccc1)NO [Vorinostat] (partner 1 µM)
In short: as §1

Cell Line	relative viability (Imatinib + Crizotinib; first compound 0.02 µM)	relative viability (Imatinib + Crizotinib; first compound 0.06325 µM)	relative viability (Imatinib + Crizotinib; first compound 0.2 µM)	relative viability (Imatinib + Crizotinib; first compound 0.6325 µM)	relative viability (Imatinib + Crizotinib; first compound 2 µM)	relative viability (Imatinib + Foretinib; first compound 0.02 µM)	relative viability (Imatinib + Foretinib; first compound 0.06325 µM)	relative viability (Imatinib + Foretinib; first compound 0.2 µM)	relative viability (Imatinib + Foretinib; first compound 0.6325 µM)	relative viability (Imatinib + Foretinib; first compound 2 µM)	relative viability (Imatinib + Phenformin; first compound 0.02 µM)	relative viability (Imatinib + Phenformin; first compound 0.06325 µM)	relative viability (Imatinib + Phenformin; first compound 0.2 µM)	relative viability (Imatinib + Phenformin; first compound 0.6325 µM)	relative viability (Imatinib + Phenformin; first compound 2 µM)	relative viability (Imatinib + Vorinostat; first compound 0.02 µM)	relative viability (Imatinib + Vorinostat; first compound 0.2 µM)	relative viability (Imatinib + Vorinostat; first compound 0.6325 µM)	relative viability (Imatinib + Vorinostat; first compound 2 µM)	relative viability (Imatinib + Vorinostat; first compound 0.06325 µM)
LXF-289	0.881	0.826	0.876	0.814	0.777	1.01	0.914	1.14	0.848	0.95	0.531	0.491	0.552	0.51	0.502	0.782	0.798	0.736	0.783	
HCC-366	1.19		0.777	0.334	0.399	0.998		0.942	0.982	1.01	0.64		0.637	0.631	0.579	0.421	0.467	0.369	0.368	0.307
IA-LM	0.991	0.744	0.999	0.781	0.735	1.34	1.2	1.06	1.4	1.17							1.14	1.16	0.923	0.357
NCI-H1755	1.08	1.12	1.06	0.808	0.794	0.917	1.02	0.98	0.948		0.643	0.674	0.596	0.568	0.536	0.875	0.649	0.742	0.653	0.835
NCI-H460	1.29	1.38	1.55	0.881	0.85	1.12	0.918	1.15	0.909	1.07	0.621	0.555	0.557	0.443	0.478	1.4	1.09	0.705	0.735	0.636
SW 1573	0.996		0.956	0.726	0.755	1.04	0.469	1.03	0.893	0.908	0.325	0.365	0.361	0.352	0.335	0.802	0.973	0.9	0.709	0.392
NCI-H2228	0.351	0.383	0.54	0.478	0.393	0.905		0.891	0.886	0.899	0.335		0.268	0.277	0.272	0.677	0.724	0.602	1	0.692
201T			1.09	0.993	1.02	1.21		1.06	1.04	1.12	0.433		0.469	0.435	0.437	0.996		0.954	0.984	0.405
ABC-1	1.34		1.43	1.15	1.07	0.739		0.904	1.13	0.922	0.252		0.224	0.305	0.187	1.21	1.37	1.02	1.24	
NCI-H2023	0.61	0.708	0.715	0.616	0.706	0.87		0.873		0.776	0.503	0.391	0.356	0.341	0.342	0.846	0.615		0.614	0.376
NCI-H2126	1.04		1.05	1	0.984	1.36	0.958	1.31	1.02		0.514		0.57		0.501	0.702	0.789	0.724	0.818	0.582
COR-L 105	0.793		0.791	0.827	0.726	1.2	1.23		0.948	1.08	0.51	0.632	0.453	0.497	0.373	1.12	0.825	0.701	0.841	0.858
UMC-11	0.702	0.647	0.56	0.564	0.818	0.981	1.31	0.973	1.14	1.11	0.331	0.327	0.322	0.332	0.294	0.35	0.36	0.412	0.369	0.377
NCI-H2342						1.15	1.25	1.18	0.97	0.966	0.633	0.57	0.587	0.573	0.561	0.766	0.772	0.865	0.745	0.789
SK-LU-1	1.04	0.927	1.11	0.926	1.04	0.978	0.888	0.892	0.73	0.869	0.56	0.499	0.499	0.472	0.475	0.87	0.798	0.793	0.748	0.832
